What was measured:
[1] = Crystal
[2] = Molar enthalpy of transition or fusion; settings: Crystal
[3] = molar heat capacity at constant pressure; settings: 101.33 kPa

CCCCCCCCCCCCCCC(=O)OC [methyl pentadecanoate]
Settings	Molar enthalpy of transition or fusion [kJ/mol]	Triple point temperature [K]
[1]	–	292.35
[2]	54.28	–

[3]
Settings	molar heat capacity at constant pressure [J/K/mol]
5 K, Crystal	0.5
10 K, Crystal	4.15
20 K, Crystal	21.13
30 K, Crystal	43.92
40 K, Crystal	71.36
50 K, Crystal	97.58
60 K, Crystal	120.37
70 K, Crystal	141.42
80 K, Crystal	159.35
90 K, Crystal	175.8
100 K, Crystal	190.15
110 K, Crystal	203.86
120 K, Crystal	216.45
130 K, Crystal	228.03
140 K, Crystal	239.15
150 K, Crystal	249.97
160 K, Crystal	260.57
170 K, Crystal	272.29
180 K, Crystal	282.1
190 K, Crystal	293.1
200 K, Crystal	304.43
210 K, Crystal	316.28
220 K, Crystal	328.72
230 K, Crystal	341.8
240 K, Crystal	355.9
250 K, Crystal	371.28
260 K, Crystal	387.35
270 K, Crystal	403.92
280 K, Crystal	432.13
300 K, Liquid	524.33
310 K, Liquid	534.12
320 K, Liquid	539.26
330 K, Liquid	544.8
340 K, Liquid	551.15

CCCCCCCCCCCCCC(=O)OC [methyl tetradecanoate]
Settings	Molar enthalpy of transition or fusion [kJ/mol]	Triple point temperature [K]
[1]	–	292.14
[2]	52.01	–

[3]
Settings	molar heat capacity at constant pressure [J/K/mol]
5 K, Crystal	0.55
10 K, Crystal	4.56
20 K, Crystal	21.34
30 K, Crystal	43.99
40 K, Crystal	69.2
50 K, Crystal	93.62
60 K, Crystal	113.9
70 K, Crystal	133.41
80 K, Crystal	150.35
90 K, Crystal	165.54
100 K, Crystal	179.38
110 K, Crystal	192.06
120 K, Crystal	203.55
130 K, Crystal	214.52
140 K, Crystal	224.93
150 K, Crystal	235.23
160 K, Crystal	244.79
170 K, Crystal	254.91
180 K, Crystal	265.19
190 K, Crystal	275.63
200 K, Crystal	286.07
210 K, Crystal	296.67
220 K, Crystal	308.85
230 K, Crystal	321.05
240 K, Crystal	334.49
250 K, Crystal	349.48
260 K, Crystal	368.64
270 K, Crystal	388.14
280 K, Crystal	429.3
300 K, Liquid	500.03
310 K, Liquid	504.66
320 K, Liquid	510
330 K, Liquid	515.86
340 K, Liquid	522.03
350 K, Liquid	528.04

CCCCCCCCCCCCC(=O)OC [methyl tridecanoate]
Settings	Molar enthalpy of transition or fusion [kJ/mol]	Triple point temperature [K]
[1]	–	279.07
[2]	45.6	–

[3]
Settings	molar heat capacity at constant pressure [J/K/mol]
5 K, Crystal	0.53
10 K, Crystal	4.03
20 K, Crystal	19.77
30 K, Crystal	41.39
40 K, Crystal	65.69
50 K, Crystal	89.16
60 K, Crystal	108.8
70 K, Crystal	127.88
80 K, Crystal	144.45
90 K, Crystal	158.95
100 K, Crystal	171.63
110 K, Crystal	183.91
120 K, Crystal	195.21
130 K, Crystal	205.64
140 K, Crystal	215.67
150 K, Crystal	225.37
160 K, Crystal	234.95
170 K, Crystal	244.5
180 K, Crystal	254.1
190 K, Crystal	264.04
200 K, Crystal	274.24
210 K, Crystal	284.88
220 K, Crystal	296.06
230 K, Crystal	307.94
240 K, Crystal	321.07
250 K, Crystal	336.07
260 K, Crystal	350.98
270 K, Crystal	371.61
290 K, Liquid	463.91
300 K, Liquid	469.05
310 K, Liquid	473.89
320 K, Liquid	479.3
330 K, Liquid	485.18
340 K, Liquid	491.82

CCCCCCCCCCC(=O)OC [methyl undecanoate]
Settings	Molar enthalpy of transition or fusion [kJ/mol]	Triple point temperature [K]
[1]	–	261.8
[2]	36.2	–

[3]
Settings	molar heat capacity at constant pressure [J/K/mol]
5 K, Crystal	0.42
10 K, Crystal	3.28
20 K, Crystal	18.49
30 K, Crystal	38.09
40 K, Crystal	59.59
50 K, Crystal	80.21
60 K, Crystal	97.96
70 K, Crystal	113.74
80 K, Crystal	128.03
90 K, Crystal	141.39
100 K, Crystal	152.92
110 K, Crystal	163.81
120 K, Crystal	173.57
130 K, Crystal	182.89
140 K, Crystal	191.72
150 K, Crystal	200.53
160 K, Crystal	209.38
170 K, Crystal	217.78
180 K, Crystal	226.5
190 K, Crystal	235.38
200 K, Crystal	244.52
210 K, Crystal	253.93
220 K, Crystal	264.97
230 K, Crystal	276.95
240 K, Crystal	291.77
250 K, Crystal	320.5
270 K, Liquid	395.83
280 K, Liquid	398.95
290 K, Liquid	402.95
300 K, Liquid	406.99
310 K, Liquid	411.22
320 K, Liquid	416.08
330 K, Liquid	421.78
340 K, Liquid	426.55
350 K, Liquid	431.52

From the NIST ThermoML archive (doi:10.1021/je0499364)
